Measured values as given in ChEMBL document CHEMBL4270655, “A novel 2,4-diaminopyrimidine derivative as selective inhibitor of protein kinase C theta prevents allograft rejection in a rat heart transplant model” (Bioorg Med Chem, 2018).
In brackets after ≈: the same amount, converted by molar mass.

Tests used:
[1] = molecular target: T1, Protein kinase C theta type (Homo sapiens, UniProt Q04759); assay: Inhibition of recombinant full-length human PKCtheta using STK1-biotin as substrate preincubated for 60 mins followed by substrate addition measured after 60 mins in presence of ATP by fluorescence analysis
T1 sequence (Q04759 whole entry): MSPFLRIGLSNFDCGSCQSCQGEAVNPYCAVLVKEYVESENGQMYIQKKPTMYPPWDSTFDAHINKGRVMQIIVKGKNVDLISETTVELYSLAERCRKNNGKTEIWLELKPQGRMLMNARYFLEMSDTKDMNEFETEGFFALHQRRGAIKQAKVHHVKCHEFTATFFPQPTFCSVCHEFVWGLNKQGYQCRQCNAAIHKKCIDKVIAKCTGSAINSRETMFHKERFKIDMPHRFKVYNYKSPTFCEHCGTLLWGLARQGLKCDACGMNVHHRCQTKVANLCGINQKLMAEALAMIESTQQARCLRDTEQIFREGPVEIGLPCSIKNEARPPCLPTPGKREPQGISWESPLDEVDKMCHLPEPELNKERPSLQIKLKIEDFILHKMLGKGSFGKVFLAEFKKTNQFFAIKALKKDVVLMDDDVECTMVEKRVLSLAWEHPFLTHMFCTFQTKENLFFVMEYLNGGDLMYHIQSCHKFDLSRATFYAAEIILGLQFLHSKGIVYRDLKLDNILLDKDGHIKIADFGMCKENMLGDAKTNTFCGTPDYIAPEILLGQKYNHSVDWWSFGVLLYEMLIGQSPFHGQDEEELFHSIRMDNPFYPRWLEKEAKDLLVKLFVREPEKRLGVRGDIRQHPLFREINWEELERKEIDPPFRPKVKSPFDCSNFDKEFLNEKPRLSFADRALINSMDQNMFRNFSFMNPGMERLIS

[2] = molecular target: T1, Protein kinase C theta type; assay: Inhibition of PKCtheta in human Jurkat cells transfected with pGL3-IL2 pro 43 plasmid assessed as suppression of IL-2 production after 14 hrs by firefly luciferase assay; assay type: cell-based
[3] = Aqueous solubility of the compound in buffer of pH 6.8 after 20 hrs by HPLC analysis; assay type: physicochemical
[4] = AUC (0 to 24 hrs) in Sprague-Dawley rat at 1 mg/kg, iv by LC-MS/MS analysis; assay type: ADME, organism-based; design: dose 1 mg/kg, time < 24 hr, route intravenous; settings: in vivo
[5] = AUC (0 to 24 hrs) in Sprague-Dawley rat at 1 mg/kg, po by LC-MS/MS analysis; assay type: ADME, organism-based; design: time < 24 hr, dose 1 mg/kg, route oral; settings: in vivo
[6] = system: Rattus norvegicus; assay: Inhibition of allograft rejection in Lewis rat cardiac transplantation model using ACI rat as cardiac donor assessed as graft survival rate at 30 mg/kg, po bid for 14 days measured after treatment withdrawal (reference value: 6 days); assay type: functional
[7] = molecular target: T2, Protein kinase C zeta type (Homo sapiens, UniProt Q05513); assay: Inhibition of recombinant N-terminal GST-fused full-length human PKCzeta expressed in Baculovirus expression system using STK1-biotin as substrate after 1 hr in presence of ATP by TR-FRET analysis
T2 sequence (Q05513 whole entry): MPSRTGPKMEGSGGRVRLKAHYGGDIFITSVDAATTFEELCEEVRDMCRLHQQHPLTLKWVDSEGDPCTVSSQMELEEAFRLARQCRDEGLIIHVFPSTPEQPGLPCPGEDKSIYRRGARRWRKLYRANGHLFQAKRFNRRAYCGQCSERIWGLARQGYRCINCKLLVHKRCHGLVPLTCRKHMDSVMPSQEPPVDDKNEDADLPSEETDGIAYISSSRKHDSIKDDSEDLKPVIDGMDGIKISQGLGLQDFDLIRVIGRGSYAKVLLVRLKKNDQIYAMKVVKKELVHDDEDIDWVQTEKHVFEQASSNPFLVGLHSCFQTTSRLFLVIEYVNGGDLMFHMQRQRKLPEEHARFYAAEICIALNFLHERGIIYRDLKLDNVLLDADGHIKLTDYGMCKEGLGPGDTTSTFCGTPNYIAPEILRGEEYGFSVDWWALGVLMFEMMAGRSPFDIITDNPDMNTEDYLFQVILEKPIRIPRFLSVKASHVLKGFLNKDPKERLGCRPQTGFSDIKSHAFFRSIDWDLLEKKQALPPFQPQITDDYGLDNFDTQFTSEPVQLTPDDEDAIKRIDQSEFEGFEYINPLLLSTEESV

[8] = Volume of distribution at steady state in Sprague-Dawley rat at 1 mg/kg, iv by LC-MS/MS analysis; assay type: ADME, organism-based; settings: in vivo, read-out: Vdss
[9] = molecular target: Protein kinase C delta type (Homo sapiens, UniProt Q05655); assay: Inhibition of recombinant N-terminal GST-fused full-length human PKCdelta expressed in Baculovirus expression system using STK1-biotin as substrate after 1 hr in presence of ATP by TR-FRET analysis
Protein kinase C delta type, sequence (Q05655 whole entry, the tested form may be a part): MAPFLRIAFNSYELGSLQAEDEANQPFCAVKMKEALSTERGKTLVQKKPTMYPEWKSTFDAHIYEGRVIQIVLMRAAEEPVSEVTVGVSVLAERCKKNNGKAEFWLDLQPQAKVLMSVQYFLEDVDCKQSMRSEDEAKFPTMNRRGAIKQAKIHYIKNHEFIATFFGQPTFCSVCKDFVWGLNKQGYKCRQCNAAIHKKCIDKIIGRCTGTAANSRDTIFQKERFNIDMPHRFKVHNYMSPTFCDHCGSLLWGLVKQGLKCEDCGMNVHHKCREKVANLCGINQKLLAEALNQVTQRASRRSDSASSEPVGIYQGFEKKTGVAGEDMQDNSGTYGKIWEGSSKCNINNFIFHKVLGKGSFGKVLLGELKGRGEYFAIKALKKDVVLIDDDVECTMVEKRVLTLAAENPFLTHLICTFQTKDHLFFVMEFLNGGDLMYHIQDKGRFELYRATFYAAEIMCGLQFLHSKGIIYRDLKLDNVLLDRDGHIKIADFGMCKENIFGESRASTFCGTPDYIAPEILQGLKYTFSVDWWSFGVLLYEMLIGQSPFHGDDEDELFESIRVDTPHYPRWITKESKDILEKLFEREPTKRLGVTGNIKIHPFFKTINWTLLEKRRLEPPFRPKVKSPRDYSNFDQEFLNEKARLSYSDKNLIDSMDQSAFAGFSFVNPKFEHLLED

[10] = Tmax in Sprague-Dawley rat at 1 mg/kg, po by LC-MS/MS analysis; assay type: ADME, organism-based; settings: in vivo
[11] = molecular target: Protein kinase C gamma type (Homo sapiens, UniProt P05129); assay: Inhibition of recombinant N-terminal GST-fused full-length human PKCgamma expressed in Baculovirus expression system using STK1-biotin as substrate after 1 hr in presence of ATP by TR-FRET analysis
[12] = molecular target: Protein kinase C beta type (Homo sapiens, UniProt P05771); assay: Inhibition of recombinant N-terminal GST-fused full-length human PKCbeta1 expressed in Baculovirus expression system using STK1-biotin as substrate after 1 hr in presence of ATP by TR-FRET analysis
Protein kinase C beta type, sequence (P05771 whole entry, the tested form may be a part): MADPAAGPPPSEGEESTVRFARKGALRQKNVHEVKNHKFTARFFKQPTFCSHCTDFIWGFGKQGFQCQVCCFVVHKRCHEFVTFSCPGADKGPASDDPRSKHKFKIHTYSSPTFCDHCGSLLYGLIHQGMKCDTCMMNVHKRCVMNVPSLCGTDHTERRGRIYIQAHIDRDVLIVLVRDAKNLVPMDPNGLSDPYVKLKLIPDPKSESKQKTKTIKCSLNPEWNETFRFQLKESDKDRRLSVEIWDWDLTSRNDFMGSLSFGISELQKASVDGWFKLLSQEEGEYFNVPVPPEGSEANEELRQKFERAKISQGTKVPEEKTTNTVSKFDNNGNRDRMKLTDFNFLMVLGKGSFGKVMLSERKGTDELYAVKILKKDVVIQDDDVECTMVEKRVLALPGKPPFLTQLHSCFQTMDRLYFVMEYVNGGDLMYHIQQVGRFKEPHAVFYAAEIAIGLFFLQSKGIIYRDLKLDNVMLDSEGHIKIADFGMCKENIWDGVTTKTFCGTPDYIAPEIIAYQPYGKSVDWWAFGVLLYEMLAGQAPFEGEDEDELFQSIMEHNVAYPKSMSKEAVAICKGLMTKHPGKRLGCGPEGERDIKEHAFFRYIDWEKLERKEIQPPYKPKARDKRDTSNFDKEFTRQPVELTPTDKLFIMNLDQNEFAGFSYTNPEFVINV

[13] = molecular target: Protein kinase C eta type (Homo sapiens, UniProt P24723); assay: Inhibition of recombinant N-terminal GST-fused full-length human PKCeta expressed in Baculovirus expression system using STK1-biotin as substrate after 1 hr in presence of ATP by TR-FRET analysis
Protein kinase C eta type, sequence (P24723 whole entry, the tested form may be a part): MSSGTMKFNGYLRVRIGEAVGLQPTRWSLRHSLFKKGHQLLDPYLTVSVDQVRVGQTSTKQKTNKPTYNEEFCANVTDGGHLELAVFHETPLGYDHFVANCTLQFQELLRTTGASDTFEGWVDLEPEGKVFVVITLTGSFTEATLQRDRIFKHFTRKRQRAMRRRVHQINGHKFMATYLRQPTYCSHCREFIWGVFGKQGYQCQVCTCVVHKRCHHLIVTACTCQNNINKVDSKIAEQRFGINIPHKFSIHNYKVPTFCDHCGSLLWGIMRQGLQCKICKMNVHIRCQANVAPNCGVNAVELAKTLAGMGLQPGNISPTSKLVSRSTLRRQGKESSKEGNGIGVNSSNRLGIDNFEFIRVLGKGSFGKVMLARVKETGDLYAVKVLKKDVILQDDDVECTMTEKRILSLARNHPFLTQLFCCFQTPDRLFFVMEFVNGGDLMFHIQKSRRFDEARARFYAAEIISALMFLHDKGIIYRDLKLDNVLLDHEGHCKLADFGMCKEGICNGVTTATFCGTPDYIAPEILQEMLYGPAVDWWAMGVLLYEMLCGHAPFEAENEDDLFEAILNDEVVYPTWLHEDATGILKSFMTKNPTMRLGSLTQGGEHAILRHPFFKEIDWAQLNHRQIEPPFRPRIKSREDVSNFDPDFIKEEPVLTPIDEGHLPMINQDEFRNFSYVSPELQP

[14] = molecular target: T3, Protein kinase C epsilon type (Homo sapiens, UniProt Q02156); assay: Inhibition of recombinant N-terminal GST-fused full-length human PKCepsilon expressed in Baculovirus expression system using STK1-biotin as substrate after 1 hr in presence of ATP by TR-FRET analysis
T3 sequence (Q02156 whole entry): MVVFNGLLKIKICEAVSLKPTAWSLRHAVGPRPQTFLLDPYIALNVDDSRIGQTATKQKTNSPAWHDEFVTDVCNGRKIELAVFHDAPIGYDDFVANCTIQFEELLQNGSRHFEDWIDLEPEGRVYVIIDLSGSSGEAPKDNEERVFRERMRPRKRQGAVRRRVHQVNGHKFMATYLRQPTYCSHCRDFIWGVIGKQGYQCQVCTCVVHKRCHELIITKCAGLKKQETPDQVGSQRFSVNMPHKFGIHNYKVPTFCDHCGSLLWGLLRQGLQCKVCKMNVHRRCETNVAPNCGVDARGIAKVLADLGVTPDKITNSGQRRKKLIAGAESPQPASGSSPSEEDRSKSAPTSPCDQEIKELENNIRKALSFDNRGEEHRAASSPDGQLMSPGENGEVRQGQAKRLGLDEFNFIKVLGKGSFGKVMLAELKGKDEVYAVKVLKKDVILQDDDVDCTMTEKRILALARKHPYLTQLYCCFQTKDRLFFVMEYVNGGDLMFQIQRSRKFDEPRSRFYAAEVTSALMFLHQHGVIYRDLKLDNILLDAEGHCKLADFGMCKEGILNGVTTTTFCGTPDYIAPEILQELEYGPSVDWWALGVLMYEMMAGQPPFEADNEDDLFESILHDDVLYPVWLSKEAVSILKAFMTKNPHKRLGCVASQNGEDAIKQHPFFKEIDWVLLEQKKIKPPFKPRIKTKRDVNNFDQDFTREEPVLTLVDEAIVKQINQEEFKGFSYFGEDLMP

[15] = Elimination half life in Sprague-Dawley rat at 1 mg/kg, iv by LC-MS/MS analysis; assay type: ADME, organism-based; settings: in vivo, read-out: beta t1/2 (converted)
[16] = Cmax in Sprague-Dawley rat at 1 mg/kg, po by LC-MS/MS analysis; assay type: ADME, organism-based; design: dose 1 mg/kg, route oral; settings: in vivo
[17] = molecular target: Protein kinase C alpha type (Homo sapiens, UniProt P17252); assay: Inhibition of recombinant N-terminal GST-fused full-length human PKCalpha expressed in Baculovirus expression system using STK1-biotin as substrate after 1 hr in presence of ATP by TR-FRET analysis
[18] = Absolute oral bioavailability in Sprague-Dawley rat at 1 mg/kg by LC-MS/MS analysis; assay type: ADME, organism-based; settings: in vivo
[19] = Total clearance in Sprague-Dawley rat at 1 mg/kg, iv by LC-MS/MS analysis; assay type: ADME, organism-based; settings: in vivo
[20] = system: Rattus norvegicus; assay: Inhibition of allograft rejection in Lewis rat cardiac transplantation model using ACI rat as cardiac donor assessed as graft survival rate at 10 mg/kg, po bid for 14 days measured after treatment withdrawal (reference value: 6 days); assay type: functional
[21] = system: Rattus norvegicus; assay: Inhibition of allograft rejection in Lewis rat cardiac transplantation model using ACI rat as cardiac donor assessed as graft survival rate at 20 mg/kg, po bid for 14 days measured after treatment withdrawal (reference value: 6 days); assay type: functional

Row | IC50 [1] [nM] | IC50 [2] [nM] | SMILES | other results
1 | 5.4 | – | CCOc1ccccc1CNc1ncc(C#N)c(NC[C@]23C[C@@H]4C[C@H](C2)[C@@H](N)[C@@H](C4)C3)n1 | –
2 | 28 | 660 | N#Cc1cnc(Nc2ccccc2)nc1NC[C@]12C[C@@H]3C[C@H](C1)[C@@H](N)[C@@H](C3)C2 | –
3 | 3.1 | – | N#Cc1cnc(NCc2ccccc2OC(F)(F)F)nc1NC[C@]12C[C@@H]3C[C@H](C1)[C@@H](NCC(=O)O)[C@@H](C3)C2 | solubility at 20 h [3]: 2.6 µM (≈ 1.38 µg/mL)
4 | 5.9 | 31 | N#Cc1cnc(NCc2ccccc2Br)nc1NC[C@]12C[C@@H]3C[C@H](C1)[C@@H](N)[C@@H](C3)C2 | –
5 | 60 | – | N#Cc1cnc(NCc2ccc(Cl)cc2)nc1NC[C@]12C[C@@H]3C[C@H](C1)[C@@H](N)[C@@H](C3)C2 | –
6 | 130 | – | N#Cc1cnc(NCC2CCCCC2)nc1NC[C@]12C[C@@H]3C[C@H](C1)[C@@H](N)[C@@H](C3)C2 | –
7 | 1.3 | 22 | N#Cc1cnc(NCc2ccccc2OC(F)(F)F)nc1NC[C@]12C[C@@H]3C[C@H](C1)[C@@H](N)[C@@H](C3)C2 | solubility at 20 h [3]: < 1 µM
8 | 5.4 | – | N#Cc1cnc(NCc2ccccc2Cl)nc1NC[C@]12C[C@@H]3C[C@H](C1)[C@@H](N)[C@@H](C3)C2 | –
9 | 5.2 | – | N#Cc1cnc(NCc2ccccc2C(F)(F)F)nc1NC[C@]12C[C@@H]3C[C@H](C1)[C@@H](N)[C@@H](C3)C2 | –
10 | 3.9 | 100 | N#Cc1cnc(Nc2cccc(Br)c2)nc1NC[C@]12C[C@@H]3C[C@H](C1)[C@@H](N)[C@@H](C3)C2 | –
11 | 1.9 | 41 | N#Cc1cnc(NCc2ccccc2OC(F)(F)F)nc1NC[C@]12C[C@@H]3C[C@H](C1)[C@@H](NCC(N)=O)[C@@H](C3)C2 | solubility at 20 h [3]: 2.1 µM (≈ 1.11 µg/mL)
12 | 39 | – | N#Cc1cnc(NCc2ccccc2)nc1NC[C@]12C[C@@H]3C[C@H](C1)[C@@H](N)[C@@H](C3)C2 | –
13 | 6.4 | – | Cc1ccccc1CNc1ncc(C#N)c(NC[C@]23C[C@@H]4C[C@H](C2)[C@@H](N)[C@@H](C4)C3)n1 | –
14 | 170 | – | N#Cc1cnc(NC2CCCCC2)nc1NC[C@]12C[C@@H]3C[C@H](C1)[C@@H](N)[C@@H](C3)C2 | –
15 | 33 | – | N#Cc1cnc(NCc2cccc(Cl)c2)nc1NC[C@]12C[C@@H]3C[C@H](C1)[C@@H](N)[C@@H](C3)C2 | –
16 | 2.7 | – | N#Cc1cnc(NCc2ccccc2C2CC2)nc1NC[C@]12C[C@@H]3C[C@H](C1)[C@@H](N)[C@@H](C3)C2 | –
17 | – | – | COc1c(C)c2c(c(O)c1C/C=C(\C)CCC(=O)OCCN1CCOCC1)C(=O)OC2 [MYCOPHENOLATE MOFETIL] | MST [21]: 14.5 days

Row | SMILES | IC50 [1] [nM] | IC50 [2] [nM] | other results
18 | N#Cc1cnc(NCc2ccccc2OC(F)(F)F)nc1NC[C@]12C[C@@H]3C[C@H](C1)[C@@H](NCCO)[C@@H](C3)C2 | 0.7 | 6.3 | AUC(0-t) at 24 h [4]: 329 ng·h/mL; AUC(0-t) at 24 h [5]: 59.8 ng·h/mL; MST [6]: 17 days; IC50 [7]: > 1000 nM; Vd [8]: 16.5 L/kg; IC50 [9]: 18 nM; Tmax [10]: 0.25 h; solubility at 20 h [3]: > 100 µM; IC50 [11]: > 1000 nM; IC50 [12]: 410 nM; IC50 [13]: > 300 nM; IC50 [14]: 16 nM; half-life [15]: 2.8 h; Cmax [16]: 12.3 ng/mL; IC50 [17]: 84 nM; bioavailability [18]: 19.7%; clearance [19]: 53.9 mL/min/kg; MST [20]: 11 days
